US20110046724A1, “Expansible Biocompatible Coats Comprising a Biologically Active Substance” (Avidal Vascular GMBH, priority 2008, published 2011)

Key:
[1] = system: human endothelial progenitor cells (EPC); test: short-term application of paclitaxel to human endothelial progenitor cells; format: cell-based; conditions: effect dose and time dependent
Source text: (§1) This effect is dose and time dependent; rising concentrations in paclitaxel and longer application show higher inhibition of cell proliferation and migration.

[2] = system: smooth muscle cells (SCM); test: short-term application of paclitaxel to smooth muscle cells; format: cell-based, human; conditions: effect dose and time dependent
Source text: as §1

## CC(=O)O[C@H]1C(=O)[C@@]2(C)[C@H]([C@H](OC(=O)c3ccccc3)[C@]3(O)C[C@H](OC(=O)[C@H](O)[C@@H](NC(=O)c4ccccc4)c4ccccc4)C(C)=C1C3(C)C)[C@]1(OC(C)=O)CO[C@@H]1C[C@@H]2O [paclitaxel]
[1]
  apoptosis, inhibition of cell proliferation and migration: leads to apoptosis and therefore inhibition of cell proliferation and migration
[2]
  apoptosis, inhibition of cell proliferation and migration: leads to apoptosis and therefore inhibition of cell proliferation and migration
